In patent publication US12692261B2, “Substituted heterocyclic compounds and therapeutic uses thereof” (Bayer Aktiengesellschaft, priority 2020, dated 2026):
Like-named read-outs stand apart in the source and are kept apart here.

Columns and labels:
full-length human CSNK1D = molecular target: T1, full-length human CSNK1D (Homo sapiens, UniProt P48730); assay: CSNK1D Assay (ADP-Glo, 1 μM ATP); format: biochemical; settings: Table 3, read-out: CSNK1D IC50 [mol/l] (median)
T1 construct: N-terminal Glutathion-S-Transferase (GST) and full-length human CSNK1D; purchased Life Technologies PV3665; host or cells: baculovirus infected insect cells
T1 sequence (P48730 whole entry): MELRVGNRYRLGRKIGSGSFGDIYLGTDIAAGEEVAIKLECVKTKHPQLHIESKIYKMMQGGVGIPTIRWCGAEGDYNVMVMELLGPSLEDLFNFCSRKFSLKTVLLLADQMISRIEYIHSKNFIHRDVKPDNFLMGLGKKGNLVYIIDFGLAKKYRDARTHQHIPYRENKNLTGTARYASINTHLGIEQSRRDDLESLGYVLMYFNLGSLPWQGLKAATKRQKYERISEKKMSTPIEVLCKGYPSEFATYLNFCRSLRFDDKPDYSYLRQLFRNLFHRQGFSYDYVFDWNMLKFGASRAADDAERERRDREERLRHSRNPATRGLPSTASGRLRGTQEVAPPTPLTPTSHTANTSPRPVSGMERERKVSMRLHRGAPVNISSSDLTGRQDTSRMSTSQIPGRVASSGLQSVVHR
Procedure, shortened: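 Enzyme is N-terminal GST-tagged full-length human CSNK1D from baculovirus-infected insect cells (typically about 0.5 ng/μL), with a biotinylated peptide substrate and 1 μM ATP. Compound pre-incubated 15 min at 22° C in HEPES pH 7.5 buffer; ADP formed is read by ADP-Glo luminescence.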

[1] = molecular target: T2, wild-type Epidermal Growth Factor Receptor (EGFR) (Homo sapiens, UniProt P00533); assay: WT-EGFR Kinase Assay (TR-FRET, 2 mM ATP); format: biochemical
T2 construct: a fragment of human EGFR (amino acids R669 to A1210); made in house; host or cells: Sf9 insect cells
T2 sequence (P00533 669-1210): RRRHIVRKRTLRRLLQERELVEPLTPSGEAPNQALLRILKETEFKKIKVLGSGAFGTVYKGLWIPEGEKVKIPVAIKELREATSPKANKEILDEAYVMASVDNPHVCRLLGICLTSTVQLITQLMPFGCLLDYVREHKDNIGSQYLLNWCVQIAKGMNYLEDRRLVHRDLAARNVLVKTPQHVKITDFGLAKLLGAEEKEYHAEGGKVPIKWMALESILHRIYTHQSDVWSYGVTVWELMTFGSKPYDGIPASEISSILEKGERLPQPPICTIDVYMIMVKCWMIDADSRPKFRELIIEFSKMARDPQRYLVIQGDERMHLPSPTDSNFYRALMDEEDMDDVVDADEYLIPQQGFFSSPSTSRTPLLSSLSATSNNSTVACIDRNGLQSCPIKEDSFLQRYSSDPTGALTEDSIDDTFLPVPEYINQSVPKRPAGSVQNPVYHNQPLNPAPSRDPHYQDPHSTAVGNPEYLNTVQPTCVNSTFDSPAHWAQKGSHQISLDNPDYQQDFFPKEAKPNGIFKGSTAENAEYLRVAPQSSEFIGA
Procedure, shortened: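 GST-fused human EGFR fragment (R669-A1210) from Sf9 cells, typically 7.6 pg/μL, pre-incubated with compound 15 min at 22° C in Hepes pH 7.0 buffer with MgCl2, DTT and vanadate; biotinylated peptide substrate. After EDTA stop, phosphopeptide detected by TR-FRET (anti-phosphotyrosine Tb-cryptate/streptavidin-XL665), 665/620 nm emission ratio.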

[2] = EGFR Wildtyp 2 mM ATP IC50 [mol/l] (median), Table 4
[3] = read-out: EGFR Wildtyp 2 mM ATP IC50 [mol/l] (median), Table 4

SMILES | IC50 (full-length human CSNK1D) | IC50 [1, 2] | IC50 [1, 3]
O=C(Nc1cc(-c2[nH]c3ncc(F)nc3c2-c2ccccn2)ccn1)C(CC(F)F)c1ccc(F)cc1 (single isomer, unassigned) [Example 63, (2R or S)-4,4-difluoro-2-(4-fluorophenyl)-N-{4-[2-fluoro-7-(pyridin-2-yl)-5H-pyrrolo[2,3-b]pyrazin-6-yl]pyridin-2-yl}butanamide] | 3.77 nM | > 20000 nM | 
O=C(Nc1cc(-c2[nH]c3ncc(F)nc3c2-c2ccccn2)ccn1)C(CC(F)F)c1ccc(F)cc1 (single isomer, unassigned) [Example 64, (2R or S)-4,4-difluoro-2-(4-fluorophenyl)-N-{4-[2-fluoro-7-(pyridin-2-yl)-5H-pyrrolo[2,3-b]pyrazin-6-yl]pyridin-2-yl}butanamide] | 40.4 nM |  | > 20000 nM
O=C(Nc1cc(-c2[nH]c3ccnnc3c2-c2ccccn2)ccn1)C(CC(F)F)c1ccc(F)cc1 (single isomer, unassigned) [Example 66, (2R or 2S)-4,4-difluoro-2-(4-fluorophenyl)-N-{4-[7-(pyridin-2-yl)-5H-pyrrolo[3,2-c]pyridazin-6-yl]pyridin-2-yl}butanamide] | 4.59 nM | > 20000 nM | 
O=C(Nc1cc(-c2[nH]c3ccnnc3c2-c2ccccn2)ccn1)C(CC(F)F)c1ccc(F)cc1 (single isomer, unassigned) [Example 67, (2R or S)-4,4-difluoro-2-(4-fluorophenyl)-N-{4-[7-(pyridin-2-yl)-5H-pyrrolo[3,2-c]pyridazin-6-yl]pyridin-2-yl}butanamide] | 29.7 nM |  | > 20000 nM
O=C(Nc1cc(-c2[nH]c3c(O[C@H]4CCOC4)ncnc3c2-c2ccccn2)ccn1)C(CC(F)F)c1ccc(F)cc1 (single isomer, unassigned) [Example 73, (2R or S)-4,4-difluoro-2-(4-fluorophenyl)-N-{4-[4-{[(3S)-oxolan-3-yl]oxy}-7-(pyridin-2-yl)-5H-pyrrolo[3,2-d]pyrimidin-6-yl]pyridin-2-yl}butanamide] | 4.02 nM | > 20000 nM | 
O=C(Nc1cc(-c2[nH]c3c(O[C@H]4CCOC4)ncnc3c2-c2ccccn2)ccn1)C(CC(F)F)c1ccc(F)cc1 (single isomer, unassigned) [Example 74, (2R or S)-4,4-difluoro-2-(4-fluorophenyl)-N-{4-[4-{[(3S)-oxolan-3-yl]oxy}-7-(pyridin-2-yl)-5H-pyrrolo[3,2-d]pyrimidin-6-yl]pyridin-2-yl}butanamide] | 55.4 nM |  | > 20000 nM
O=C(Nc1cc(-c2[nH]c3c(OCC(F)F)ncnc3c2-c2ccccn2)ccn1)C(CC(F)F)c1ccc(F)cc1 (single isomer, unassigned) [Example 79, (2R or S)—N-{4-[4-(2,2-difluoroethoxy)-7-(pyridin-2-yl)-5H-pyrrolo[3,2-d]pyrimidin-6-yl]pyridin-2-yl}-4,4-difluoro-2-(4-fluorophenyl)butanamide] | 3.27 nM | > 20000 nM | 
O=C(Nc1cc(-c2[nH]c3c(OCC(F)F)ncnc3c2-c2ccccn2)ccn1)C(CC(F)F)c1ccc(F)cc1 (single isomer, unassigned) [Example 80, (2R or S)—N-{4-[4-(2,2-difluoroethoxy)-7-(pyridin-2-yl)-5H-pyrrolo[3,2-d]pyrimidin-6-yl]pyridin-2-yl}-4,4-difluoro-2-(4-fluorophenyl)butanamide] | 26.4 nM |  | > 20000 nM
COc1cnc2c(-c3ccccn3)c(-c3ccnc(NC(=O)C(CC(F)F)c4ccc(F)cc4)c3)[nH]c2c1 (single isomer, unassigned) [Example 82, 4,4-difluoro-2-(4-fluorophenyl)-N-{4-[6-methoxy-3-(pyridin-2-yl)-1H-pyrrolo[3,2-b]pyridin-2-yl]pyridin-2-yl}butanamide] | 3.17 nM | > 20000 nM | 
COc1cnc2c(-c3ccccn3)c(-c3ccnc(NC(=O)C(CC(F)F)c4ccc(F)cc4)c3)[nH]c2c1 (single isomer, unassigned) [Example 83, 4,4-difluoro-2-(4-fluorophenyl)-N-{4-[6-methoxy-3-(pyridin-2-yl)-1H-pyrrolo[3,2-b]pyridin-2-yl]pyridin-2-yl}butanamide] | 35.3 nM |  | > 20000 nM
O=C(Nc1cc(-c2[nH]c3cc(Cl)cnc3c2-c2ccccn2)ccn1)C(CC(F)F)c1ccc(F)cc1 (single isomer, unassigned) [Example 88, (+)—N-{4-[6-chloro-3-(pyridin-2-yl)-1H-pyrrolo[3,2-b]pyridin-2-yl]pyridin-2-yl}-4,4-difluoro-2-(4-fluorophenyl)butanamide] | 7.42 nM | > 20000 nM | 
O=C(Nc1cc(-c2[nH]c3cc(Cl)cnc3c2-c2ccccn2)ccn1)C(CC(F)F)c1ccc(F)cc1 (single isomer, unassigned) [Example 89, (−)—N-{4-[6-chloro-3-(pyridin-2-yl)-1H-pyrrolo[3,2-b]pyridin-2-yl]pyridin-2-yl}-4,4-difluoro-2-(4-fluorophenyl)butanamide] | 104 nM |  | > 20000 nM
Cc1cnc2c(-c3ccccn3)c(-c3ccnc(NC(=O)C(CC(F)F)c4ccc(F)cc4)c3)[nH]c2n1 (single isomer, unassigned; (+)) [Example 86, (+)-4,4-difluoro-2-(4-fluorophenyl)-N-{4-[3-methyl-7-(pyridin-2-yl)-5H-pyrrolo[2,3-b]pyrazin-6-yl]pyridin-2-yl}butanamide] | 6.16 nM | > 20000 nM | 
COc1cnc2c(-c3ccccn3)c(-c3ccnc(NC(=O)C(CC(F)F)c4ccc(F)cc4)c3)[nH]c2c1 (centres unmarked) [Example 81, 4,4-difluoro-2-(4-fluorophenyl)-N-{4-[6-methoxy-3-(pyridin-2-yl)-1H-pyrrolo[3,2-b]pyridin-2-yl]pyridin-2-yl}butanamide] | 5.85 nM | > 20000 nM | 
Cc1ccnc2c(-c3ccccn3)c(-c3ccnc(NC(=O)C(CC(F)F)c4ccc(F)cc4)c3)[nH]c12 (centres unmarked) [Example 84, 4,4-difluoro-2-(4-fluorophenyl)-N-{4-[7-methyl-3-(pyridin-2-yl)-1H-pyrrolo[3,2-b]pyridin-2-yl]pyridin-2-yl}butanamide] | 7.35 nM | > 20000 nM | 
Cc1cnc2c(-c3ccccn3)c(-c3ccnc(NC(=O)C(CC(F)F)c4ccc(F)cc4)c3)[nH]c2n1 (centres unmarked) [Example 85, 4,4-difluoro-2-(4-fluorophenyl)-N-{4-[3-methyl-7-(pyridin-2-yl)-5H-pyrrolo[2,3-b]pyrazin-6-yl]pyridin-2-yl}butanamide] | 7.11 nM | > 20000 nM | 
